Values of other authors, collected in patent US20240016859A1, “MICROENCAPSULATED AND CHROMOSOME INTEGRATED COMPOSITIONS FOR L-DOPA MICROBIOME THERAPY” (Iowa State University Research Foundation, Inc., priority 2020, published 2024).

N[C@@H](Cc1ccc(O)c(O)c1)C(=O)O [Levodopa, (−)-L-a-amino-b-(3,4-dihydroxybenzene)propanoic acid]
solubility in water: slightly soluble
